From US20050085528A1 (priority 2003, published 2005)

Legend:
in vitro = conditions: replicon cells (lucubineo cells)
Replicon cells [1] = experiment: cells; conditions: read-out: Cytostatic (IC50)
[2] = 6- to 12-month course; cited from earlier work
HCV replicon RNA = experiment: Quantitative RT-PCR (Taqman) of replicon RNA; type: cell-based; conditions: FIG. 2A
Description: Statin-treated cells in the duplicate clear plate were analysed for cytotoxicity by addition of 10 μL WST-1 reagent (Roche Biosciences) to each well and incubated for 37° C. for 60 minutes. After vigorous shaking, the plate was read at 450 nm. The supernatent was removed and the monolayer washed with PBS prior to addition 100 μL RLT lysis buffer (Qiagen RNAeasy kit) to each test well, followed by vigorous resuspension to ensure uniform lysis of all cells. Total RNA was extracted according to Qiagen RNAeasy protocols recommended by manufacturer. Briefly, 0.1 μg total RNA was reverse transcribed using random hexamers and 20% cDNA produced was used as a template in a Taqman reaction (Universal PCR Master Mix protocol p\n 43044449 Rev B).
These procedures are described in Perkin Elmer Biosystems User Bulletin 2. Briefly, the quantity of replicon RNA in a given sample was determined relative to the untreated control and normalised with respect to actin. Having established that the efficiencies of the replicon and actin PCR reactions were similar (data not shown), the relative quantity of replicon RNA was described by 2^−ΔΔCt where, ΔΔCt=ΔCt(test)−ΔCt(control) ΔCt(test)[…]−Ct(actin) and ΔCt(control)=Ct(control)−Ct(actin) Cholesterol Biosynthesis Assay

[3] = system: HCV replicon (Huh 5-2 [I389luc-ubi-neo-NS3-3′/5.1]); experiment: microbe, parasite or virus in culture; type: cell-based; conditions: for Inhibition of luciferase expression in replicon cells (in words): FIG. 2; for IC50: Hepatitis C virus, Huh-5-2, luciferase, 72 hours statin treatment
Replicon cells [4] = conditions: @ 10 μM
EMCV IRES = experiment: Green fluorescent protein assay (pIRES2-EGFP); type: cell-based, Encephalomyocarditis virus; conditions: atorvastatin concentrations which reduced HCV replicon activity (10 uM, FIG. 5)
Description: Replicon cells were electroporated in cytomix buffer at 10^7 cells/mL at 960 uF, 270 V with varying amounts pIRES2-EGFP. Cell viability was monitored by trypan blue staining and cell counting. Aliquots of cells (2×10^4) were plated out in clear bottomed black 96 well plates and incubated for 24 hours. The cells were rinsed with PBS and fluorescence output read using an Analyst HT (LJL Biosystems).
Impairment of this function was examined in the presence of statins. Replicon cells were transfected with varying amounts of pIRES2-EGFP in which the green fluorescent protein reporter is expressed by a EMCV IRES.

Replicon cells [5] = system: Replicon cells

Row | Compound | IC50 at 72 h (in vitro) [µM] | IC50 (Replicon cells [1]) [µM] | IC50 [3] [µM] | further results
1 | CCC(C)(C)C(=O)O[C@H]1C[C@@H](C)C=C2C=C[C@H](C)[C@H](CC[C@@H]3C[C@@H](O)CC(=O)O3)[C@H]21 [Simvastatin] | 64.7 | 28 | – | –
2 | Alpha interferon | – | – | – | Patients in whom an autoimmune condition is triggered [2]: about 2%
3 | CC[C@H](C)C(=O)O[C@H]1C[C@@H](C)C=C2C=C[C@H](C)[C@H](CC[C@@H]3C[C@@H](O)CC(=O)O3)[C@H]21 [Lovastatin] | 158 | 89.3 | 7.9 | Replicon RNA by RT-PCR, normalised to beta actin (HCV replicon RNA): quantitative reduction of replicon RNA; Inhibition of luciferase expression in replicon cells (in words) [3]: dose dependent inhibition
4 | CC(C)c1c(C(=O)Nc2ccccc2)c(-c2ccccc2)c(-c2ccc(F)cc2)n1CC[C@@H](O)C[C@@H](O)CC(=O)O (relative stereo) [Atorvastatin, [R-(R*,R*)]-2-(4-fluorophenyl)-b,d-dihydroxy-5-(1-methylethyl)-3-phenyl-4[(phenylamino)carbonyl]-IH-pyrrole-1-heptanoic acid] | – | 2.5 | 4.1 | Cytotoxicity, % at one concentration (Replicon cells [4]): 18.3% @ 10 μM; Effect on GFP signal driven by EMCV IRES (EMCV IRES): no effect; Inhibition of luciferase expression in replicon cells (in words) [3]: increased antiviral activity compared to lovastatin
5 | CC[C@H](C)C(=O)O[C@H]1C[C@H](O)C=C2C=C[C@H](C)[C@H](CC[C@@H](O)C[C@@H](O)CC(=O)O)[C@H]21 [Pravastatin] | – | – | 322 | Cytostatic, % at one concentration (Replicon cells [5]): 25% @ 500,000 μM
6 | COCc1c(C(C)C)nc(C(C)C)c(/C=C/[C@@H](O)C[C@@H](O)CC(=O)O)c1-c1ccc(F)cc1 [Cerivastatin] | 4.9 | 5.5 | 1.1 | –
7 | C[C@@](O)(CCO)CC(=O)O [MVA, mevalonic acid] | – | – | – | Rescue of atorvastatin inhibition of HCV replicon activity by MVA ([3]; 14 μM MVA, 10 uM atorvastatin, FIG. 3A): begins to alleviate the atorvastatin inhibition; Response of control HCV replicon cells to MVA ([3]; absence of statin, FIG. 3B): do not respond; Rescue of atorvastatin inhibition of HCV replicon activity by MVA ([3]; further addition of MVA, 10 μM atorvastatin): completely restores replicon activity
